Data published in paper PMC2810428 (Journal of medicinal chemistry, 2010).

Assays:
SK-OV-3-MDR 1–6/6 = SK-OV-3-MDR 1–6/6 vs SK-OV-3 pair; ref [32]; cited from earlier work
WTβIII = WTβIII vs HeLa pair; ref [32]; cited from earlier work
L1210 and B16 cells = details: read-out: reported IC50 values for L1210 and B16 cells; ref [3]–[5]; cited from earlier work
L1210 cells = assay: Inhibition of L1210 cell growth; assay type: cell-based, murine; details: L1210 IC50, 9b versus 9a
MDA-MB-435 cells = assay: Cell cycle analysis by flow cytometry; assay type: cell-based, human; details: paclitaxel positive control (0.0125 µM), data not shown

| Structure (SMILES) | Rr (relative resistance) (SK-OV-3-MDR 1–6/6) | Rr (relative resistance) (WTβIII) | IC50 (L1210 and B16 cells) [nM] | fold decrease in potency on shifting nitro group to the 3’ position (L1210 cells) [fold] | cell cycle distribution (MDA-MB-435 cells) |
| --- | --- | --- | --- | --- | --- |
| COc1cc2c(cc1O)CC[C@@H]1[C@@H]2CC[C@]2(C)[C@@H](O)CC[C@@H]12 [2-methoxyestradiol] | 2.6 | 1.0 |  |  |  |
| COc1ccc(/C=C\c2cc(OC)c(OC)c(OC)c2)cc1O [Compound 1, Combretastatin A-4] |  |  | 3 to 7 |  |  |
| COc1cc(C2=NN(C(C)=O)C(c3cccc([N+](=O)[O-])c3)O2)cc(OC)c1OC (stereo not shown) [Compound 9b] |  |  |  | 9 |  |
| CC(=O)O[C@H]1C(=O)[C@@]2(C)[C@H]([C@H](OC(=O)c3ccccc3)[C@]3(O)C[C@H](OC(=O)[C@H](O)[C@@H](NC(=O)c4ccccc4)c4ccccc4)C(C)=C1C3(C)C)[C@]1(OC(C)=O)CO[C@@H]1C[C@@H]2O [paclitaxel] | 860 | 4.7 |  |  | identical effect |
